Data published in PubChem BioAssay (NCI).
“And” between values parts separate entries of the source, which are not always exact repeats. Identical values can stand only once.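 Interpolation was linear, between the two tested concentrations surrounding the appropriate level; five concentrations were tested over 48 hours in 96-well plates. Abbreviation: GI50, concentration required for 50% inhibition of growth. TGI: concentration producing complete growth inhibition.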

Assays:
Assay in all cases: NCI-60 cell line screen, 48 h
[1] = test system: HL-60(TB) leukemia
[2] = test system: MDA-MB-435
[3] = test system: OVCAR-4 ovarian
[4] = test system: RXF 393 renal
[5] = test system: SF-295 CNS
[6] = test system: SF-539 CNS
[7] = test system: SK-MEL-2 melanoma
[8] = test system: SK-OV-3 ovarian
[9] = test system: SNB-75 CNS
[10] = test system: TK-10 renal

| SMILES | GI50 [1] | GI50 [2] | TGI [2] | GI50 [3] | TGI [3] | GI50 [4] [nM] | TGI [4] | GI50 [5] | GI50 [6] | TGI [6] | GI50 [7] | TGI [8] | GI50 [9] | TGI [9] [nM] | TGI [10] | TGI [1] | TGI [5] | TGI [7] [nM] | GI50 [8] | GI50 [10] [nM] |
| --- | --- | --- | --- | --- | --- | --- | --- | --- | --- | --- | --- | --- | --- | --- | --- | --- | --- | --- | --- | --- |
| COc1cc2c3c(c4cc(OC)c(OC)cc4c2cc1OC)CN1CCC[C@H]1C3 | 85.3 nM and < 16.5 nM | 29.8 nM and < 14.7 nM | 494 nM and 1290 nM | 41.9 nM and < 10 nM | 1280 nM and 392 nM | 4.87 | 93.1 nM | 35.7 nM and 10 nM | 56.4 nM and 15.7 nM | 2940 nM and 1120 nM | 29.7 nM and < 10 nM | 172 nM | 8.4 nM | 66.3 | 103 nM and 497 nM | – | – | – | – | – |
| C=C(CN1CCN(c2cc(C(F)(F)F)cc(C(F)(F)F)c2)CC1)c1ccc(C(=O)Nc2ccccc2N)cc1 | 1050 nM | 1840 nM | 4880 nM | 2530 nM | 9900 nM | 2020 | 7710 nM | 7290 nM | 18000 nM | > 100000 nM | 10200 nM | > 100000 nM | 3440 nM | 18500 | > 100000 nM | > 100000 nM | 62000 nM | > 100000 | 25700 nM | 12300 |
| O=C1c2ccccc2-c2cn(Cc3ccccc3)c3cccc(c23)C1c1cccnc1 (stereo unspecified) | 2400 nM | 1320 nM | 6130 nM | 6150 nM | > 50000 nM | 8100 | > 50000 nM | 2020 nM | 5670 nM | > 50000 nM | 3900 nM | > 50000 nM | 1380 nM | 26000 | > 50000 nM | 19500 nM | > 50000 nM | > 50000 | 5380 nM | 20800 |
| Oc1ccccc1/C=N\NC(=S)Nc1ccc(F)cc1 | 906 nM | 404 nM | > 96600 nM | 462 nM | 49400 nM | 2630 | 65800 nM | 1380 nM | 2120 nM | 32300 nM | 5960 nM | 76500 nM | 1660 nM | 14900 | > 100000 nM | 6220 nM | – | > 100000 | 2110 nM | 6830 |
| Cc1cnc(C(=O)Nc2nc3ccc(S(=O)(=O)Nc4ccc(C(C)(C)C)cc4)cc3[nH]2)cn1 | 304 nM | 135 nM | 434 nM | 1460 nM | 17300 nM | 312 | 1860 nM | 401 nM | 333 nM | 1870 nM | 1260 nM | 17100 nM | 216 nM | 1010 | 15200 nM | 1070 nM | 4210 nM | 17300 | 1090 nM | 2530 |
| CNC(=O)c1sc(-n2cnc3cc(OC)c(OC)cc32)cc1OCc1ccccc1C(F)(F)F | > 15800 nM | > 25000 nM | > 25000 nM | > 25000 nM | > 25000 nM | > 25000 | > 25000 nM | > 21400 nM | > 25000 nM | > 25000 nM | > 25000 nM | > 25000 nM | > 15800 nM | > 25000 | > 25000 nM | > 25000 nM | > 25000 nM | > 25000 | > 25000 nM | > 25000 |
| N#Cc1ccc2c(-c3ccnc(NC4CC4)n3)c(-c3ccc(F)cc3)nn2c1 | > 25000 nM | > 25000 nM | > 25000 nM | > 25000 nM | > 25000 nM | > 25000 | > 25000 nM | > 25000 nM | > 25000 nM | > 25000 nM | > 25000 nM | > 25000 nM | > 17200 nM | > 25000 | > 25000 nM | > 25000 nM | > 25000 nM | > 25000 | 22400 nM | > 25000 |
| CCCCCn1sc(=O)n(Cc2ccc(CNC(=O)C(C)c3ccc(CC(C)C)cc3)cc2)c1=O (stereo unspecified) | 1680 nM | 876 nM | 2170 nM | 999 nM | 2420 nM | 727 | 1940 nM | 1740 nM | 1190 nM | 2440 nM | 1500 nM | 14700 nM | 431 nM | 1860 | 2050 nM | > 20500 nM | 3920 nM | 2980 | 3500 nM | 736 |
| C=C1C(C)C2C(Cc3ccccc3)NC(=O)C23C(OC(C)=O)C=CC(C)(O)C(=O)C(C)C/C=C/C3C1O (stereo unspecified) | 1610 nM | 2320 nM | > 414000 nM | 10400 nM | 99800 nM and > 500000 nM | 60.4 | 1550 nM and 1040 nM | 418 nM | 208 nM | 2770 nM and 1220 nM | – | 49500 nM and 76100 nM | 21.8 nM and 50 nM | – | – | 20500 nM and 15700 nM | 30500 nM and 62300 nM | 74800 | 76.1 nM and 230 nM | 732 |
| O=C(/C=C/c1ccco1)Nc1ncc(Cc2cc(Cl)ccc2Cl)s1 | 48.2 nM | 19.1 nM | 44.9 nM | 1030 nM | > 100000 nM | 32.8 | 303 nM | 45 nM | 37.3 nM | 191 nM | 148 nM | > 100000 nM | 26.1 nM | 433 | > 100000 nM | 159 nM | > 100000 nM | > 100000 | 53.8 nM | 6880 |
| CSc1ccc(-c2cn3ccsc3n2)cc1 | 2420 nM | 12600 nM | > 100000 nM | 9150 nM | > 100000 nM | 5190 | > 92000 nM | 19000 nM | 16900 nM | > 75300 nM | 4000 nM | > 100000 nM | 7760 nM | 74000 | > 84700 nM | > 50000 nM | > 86000 nM | > 92900 | 59700 nM | 18000 |
| COc1ccc(/C(=C(\c2ccccc2)[N+](=O)[O-])c2ccc(OCCN3CCCC3)cc2)cc1 | 1940 nM | 2850 nM | 10500 nM | 4660 nM | 16700 nM | 1650 | 3760 nM | 1930 nM | 1390 nM | 3420 nM | 2060 nM | 18300 nM | 2240 nM | 8170 | 20100 nM | 4600 nM | 5390 nM | 5060 | 5500 nM | 5170 |
